Measured values from patent US12077503B2, “Substituted cyclic amides and their use as herbicides” (FMC CORPORATION, priority 2015, dated 2024).

Columns and labels:
Type in all cases: in vivo
rice (Oryra sativa) = experiment: Test B flooded paddy test; conditions: Oryza sativa, Flood, 250 g ai/ha; scale of 0 to 100 where 0 is no effect and 100 is complete control; read-out: Rice plant response rating
In short: (§1)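 Compound goes directly into floodwater once pots are flooded 3 cm above soil, targeting plants at two leaves; the water depth is then held for the test duration. Plants sit 13–15 d in a greenhouse and are rated visually, 100 denoting complete control.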

[1] = system: sedge, umbrella (small-flower umbrella sedge, Cyperus difformis); experiment: Test B flooded paddy test; conditions: Cyperus difformis, Flood, 250 g ai/ha; scale of 0 to 100 where 0 is no effect and 100 is complete control; read-out: Sedge, Umbrella plant response rating
In short: as §1

[2] = system: barnyardgrass (Echinochloa crus-galli); experiment: Test B flooded paddy test; conditions: Echinochloa crus-galli, Flood, 250 g ai/ha; scale of 0 to 100 where 0 is no effect and 100 is complete control; read-out: Barnyardgrass plant response rating
In short: as §1

[3] = system: ducksalad (Heteranthera limosa); experiment: Test B flooded paddy test; conditions: Heteranthera limosa, Flood, 250 g ai/ha; scale of 0 to 100 where 0 is no effect and 100 is complete control; read-out: Ducksalad plant response rating
In short: as §1

[4] = system: giant foxtail (Setaria faberii); experiment: Test A postemergence; conditions: Setaria faberi, post-emergence, 240 h, 125 g ai/ha, Postemergence; visual injury after approximately 10 d; 0 to 100 scale where 0 is no effect and 100 is complete control; read-out: Plant response rating, Foxtail, Giant
In short: (§2)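 Preemergence soil spray on seeded pots or post-emergence spray on 1–2 leaf plants, in loam–sand blend. Greenhouse ~10 d. Visual rating 0–100 against untreated plants.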

corn (Zea mays) = experiment: Test A postemergence; conditions: Zea mays, post-emergence, 240 h, 125 g ai/ha, Postemergence; visual injury after approximately 10 d; 0 to 100 scale where 0 is no effect and 100 is complete control
In short: as §2

[5] = system: ryegrass, Italian (Italian ryegrass, Lolium multiflorum); experiment: Test A postemergence; conditions: Lolium multiflorum, post-emergence, 240 h, 125 g ai/ha, Postemergence; visual injury after approximately 10 d; 0 to 100 scale where 0 is no effect and 100 is complete control; read-out: Plant response rating, Ryegrass, Italian
In short: as §2

[6] = system: Galium (catchweed bedstraw, Galium aparine); experiment: Test A postemergence; conditions: Galium, post-emergence, 240 h, 125 g ai/ha, Postemergence; visual injury after approximately 10 d; 0 to 100 scale where 0 is no effect and 100 is complete control; read-out: Plant response rating, Galium
In short: as §2

[7] = system: blackgrass (Alopecurus myosuroides); experiment: Test A postemergence; conditions: Alopecurus myosuroides, post-emergence, 240 h, 125 g ai/ha, Postemergence; visual injury after approximately 10 d; 0 to 100 scale where 0 is no effect and 100 is complete control; read-out: Plant response rating, Blackgrass
In short: as §2

Kochia (Kochia scoparia) = experiment: Test A postemergence; conditions: Bassia scoparia, post-emergence, 240 h, 125 g ai/ha, Postemergence; visual injury after approximately 10 d; 0 to 100 scale where 0 is no effect and 100 is complete control; read-out: Plant response rating, Kochia
In short: as §2

[8] = system: ragweed (common ragweed, Ambrosia elatior); experiment: Test A postemergence; conditions: Ambrosia artemisiifolia, post-emergence, 240 h, 125 g ai/ha, Postemergence; visual injury after approximately 10 d; 0 to 100 scale where 0 is no effect and 100 is complete control; read-out: Plant response rating, Ragweed
In short: as §2

[9] = system: wheat (Triticum aestivum); experiment: Test A postemergence; conditions: Triticum aestivum, post-emergence, 240 h, 125 g ai/ha, Postemergence; visual injury after approximately 10 d; 0 to 100 scale where 0 is no effect and 100 is complete control; read-out: Plant response rating, Wheat
In short: as §2

[10] = system: pigweed (Amaranthus retroflexus); experiment: Test A postemergence; conditions: Amaranthus retroflexus, post-emergence, 240 h, 125 g ai/ha, Postemergence; visual injury after approximately 10 d; 0 to 100 scale where 0 is no effect and 100 is complete control; read-out: Plant response rating, Pigweed
In short: as §2

[11] = system: barnyardgrass (Echinochloa crus-galli); experiment: Test A postemergence; conditions: Echinochloa crus-galli, post-emergence, 240 h, 125 g ai/ha, Postemergence; visual injury after approximately 10 d; 0 to 100 scale where 0 is no effect and 100 is complete control; read-out: Plant response rating, Barnyardgrass
In short: as §2

[12] = system: pigweed (Amaranthus retroflexus); experiment: Test A preemergence; conditions: Amaranthus retroflexus, pre-emergence, 240 h

Compound: CN1C[C@H](c2cc(C(F)(F)F)cs2)[C@@H](C(=O)Nc2ccccc2F)C1=O [Compound 962]
- pest or weed control at 250 g/ha (rice (Oryra sativa)): 10%
- pest or weed control at 250 g/ha [1]: 0%
- pest or weed control at 250 g/ha [2]: 60%
- pest or weed control at 250 g/ha [3]: 90%
- pest or weed control at 125 g/ha [4]: 90%
- Corn plant response rating (crop injury, 0 = no effect, 100 = complete kill) at 125 g/ha (corn (Zea mays)): 0%
- pest or weed control at 125 g/ha [5]: 20%
- pest or weed control at 125 g/ha [6]: 30%
- pest or weed control at 125 g/ha [7]: 20%
- pest or weed control at 125 g/ha (Kochia (Kochia scoparia)): 20%
- pest or weed control at 125 g/ha [8]: 0%
- plant injury at 125 g/ha [9]: 30%
- pest or weed control at 125 g/ha [10]: 0%
- pest or weed control at 125 g/ha [11]: 90%
- pest or weed control at 125 g/ha ([12]; 125 g ai/ha, Preemergence, visual injury rating after approximately 10 d, read-out: Pigweed plant response rating (0 to 100 scale, 0 is no effect, 100 is complete control)): 0%
- pest or weed control at 500 g/ha ([12]; 500 g ai/ha, preemergence, visual injury rating about 10 d after treatment, 0 to 100 scale (0 no effect, 100 complete control), read-out: Pigweed plant response rating): 50%
